# Laboratory results as given in ChEMBL document CHEMBL5465560, “Selectivity Literature for EUbOPEN Chemogenomic Library” (2024).
# Key:
# [1] = molecular target: Phosphatidylinositol 4-phosphate 5-kinase type-1 alpha (Homo sapiens) (UniProt Q99755); assay: Selectivity interaction (KinomeScan (DiscoverX)) EUB0000229b PIP5K1A; conditions: at 10 µM
# [2] = molecular target: T1, Interleukin-1 receptor-associated kinase 4 (Homo sapiens) (UniProt Q9NWZ3); assay: Selectivity interaction (KinomeScan (DiscoverX)) EUB0001079a IRAK4; conditions: at 1 µM
# T1 sequence (whole entry): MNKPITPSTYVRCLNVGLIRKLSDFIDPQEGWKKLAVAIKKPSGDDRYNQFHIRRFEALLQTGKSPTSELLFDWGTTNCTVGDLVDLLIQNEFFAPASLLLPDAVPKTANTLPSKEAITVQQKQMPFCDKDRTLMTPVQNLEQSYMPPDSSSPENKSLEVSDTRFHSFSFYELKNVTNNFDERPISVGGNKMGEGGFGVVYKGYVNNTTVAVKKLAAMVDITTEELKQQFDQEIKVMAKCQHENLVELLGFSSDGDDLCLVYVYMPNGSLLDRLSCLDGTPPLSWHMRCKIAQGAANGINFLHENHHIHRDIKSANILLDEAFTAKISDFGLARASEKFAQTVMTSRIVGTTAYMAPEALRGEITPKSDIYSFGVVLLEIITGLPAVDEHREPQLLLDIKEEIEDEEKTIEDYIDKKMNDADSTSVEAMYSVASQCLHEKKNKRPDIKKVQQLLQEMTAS
# [3] = molecular target: T2, Serine/threonine-protein kinase Nek5 (Homo sapiens) (UniProt Q6P3R8); assay: Selectivity interaction (KinomeScan (DiscoverX)) EUB0001079a NEK5; conditions: at 1 µM
# T2 sequence (whole entry): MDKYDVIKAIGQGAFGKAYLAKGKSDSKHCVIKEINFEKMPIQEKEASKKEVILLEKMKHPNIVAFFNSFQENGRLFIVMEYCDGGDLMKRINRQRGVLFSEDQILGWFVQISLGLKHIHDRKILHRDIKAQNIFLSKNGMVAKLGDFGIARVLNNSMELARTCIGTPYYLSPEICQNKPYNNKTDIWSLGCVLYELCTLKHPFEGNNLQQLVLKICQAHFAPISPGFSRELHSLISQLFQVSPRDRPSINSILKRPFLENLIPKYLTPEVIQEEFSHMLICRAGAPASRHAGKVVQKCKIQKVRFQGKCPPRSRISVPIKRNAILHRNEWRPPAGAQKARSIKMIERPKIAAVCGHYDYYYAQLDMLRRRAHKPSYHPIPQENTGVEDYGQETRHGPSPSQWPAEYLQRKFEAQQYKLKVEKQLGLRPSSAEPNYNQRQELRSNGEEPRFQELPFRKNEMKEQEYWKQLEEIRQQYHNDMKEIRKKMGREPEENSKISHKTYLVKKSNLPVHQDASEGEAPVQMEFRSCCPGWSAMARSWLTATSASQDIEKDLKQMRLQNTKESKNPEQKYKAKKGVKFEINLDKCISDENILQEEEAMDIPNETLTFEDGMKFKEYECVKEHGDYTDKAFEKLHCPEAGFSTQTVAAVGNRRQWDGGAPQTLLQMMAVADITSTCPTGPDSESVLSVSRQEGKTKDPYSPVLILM
# [4] = molecular target: Ribosomal protein S6 kinase alpha-6 (Homo sapiens, UniProt Q9UK32); conditions: at 10 µM
# [5] = molecular target: Mitogen-activated protein kinase kinase kinase kinase 4 (Homo sapiens, UniProt O95819); assay: Selectivity interaction (KinomeScan (DiscoverX)) EUB0001619a MAP4K4; conditions: at 1 µM
# [6] = molecular target: Cyclin-dependent kinase-like 3 (Homo sapiens) (UniProt Q8IVW4); assay: Selectivity interaction (KinomeScan (DiscoverX)) EUB0000607a CDKL3; conditions: at 10 µM
# [7] = molecular target: T3, Mitogen-activated protein kinase 13 (Homo sapiens) (UniProt O15264); assay: Selectivity interaction (SelectScreen profiling (Invitrogen)) EUB0000607a MAPK13; conditions: at 2 µM
# T3 sequence (whole entry): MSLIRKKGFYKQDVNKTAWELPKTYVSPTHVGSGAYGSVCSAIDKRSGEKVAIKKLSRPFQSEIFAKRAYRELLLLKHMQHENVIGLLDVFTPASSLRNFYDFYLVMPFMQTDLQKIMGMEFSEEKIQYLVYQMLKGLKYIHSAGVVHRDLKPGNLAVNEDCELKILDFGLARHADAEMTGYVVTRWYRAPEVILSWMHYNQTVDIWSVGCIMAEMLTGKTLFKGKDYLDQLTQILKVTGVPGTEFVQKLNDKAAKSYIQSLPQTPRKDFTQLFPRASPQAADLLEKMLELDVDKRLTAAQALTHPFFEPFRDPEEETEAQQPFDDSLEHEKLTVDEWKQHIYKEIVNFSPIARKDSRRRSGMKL
# [8] = molecular target: Dual specificity mitogen-activated protein kinase kinase 2 (Homo sapiens) (UniProt P36507); assay: Selectivity interaction (KinomeScan (DiscoverX)) EUB0000618a MAP2K2; conditions: at 10 µM
# [9] = molecular target: T4, Dual specificity tyrosine-phosphorylation-regulated kinase 2 (Homo sapiens) (UniProt Q92630); assay: Selectivity interaction (KinomeScan (DiscoverX)) EUB0000618a DYRK2; conditions: at 10 µM
# T4 sequence (whole entry): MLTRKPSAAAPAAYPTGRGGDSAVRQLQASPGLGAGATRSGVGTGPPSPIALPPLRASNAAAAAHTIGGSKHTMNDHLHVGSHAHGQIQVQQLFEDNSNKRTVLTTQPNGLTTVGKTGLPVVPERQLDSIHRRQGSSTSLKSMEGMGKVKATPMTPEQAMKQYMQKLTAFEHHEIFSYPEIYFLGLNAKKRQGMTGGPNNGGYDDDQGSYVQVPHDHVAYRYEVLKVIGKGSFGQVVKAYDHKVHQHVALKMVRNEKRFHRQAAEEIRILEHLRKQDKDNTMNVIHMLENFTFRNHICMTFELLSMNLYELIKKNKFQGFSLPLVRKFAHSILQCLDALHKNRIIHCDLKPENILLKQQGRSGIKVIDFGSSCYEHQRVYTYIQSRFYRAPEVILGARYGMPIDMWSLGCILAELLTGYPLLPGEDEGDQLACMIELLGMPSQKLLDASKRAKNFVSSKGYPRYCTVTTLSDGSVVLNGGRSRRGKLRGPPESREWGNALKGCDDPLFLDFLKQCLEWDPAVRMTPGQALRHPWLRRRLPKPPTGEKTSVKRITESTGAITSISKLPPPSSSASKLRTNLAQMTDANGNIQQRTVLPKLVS
# [10] = molecular target: Dual specificity protein kinase CLK4 (Homo sapiens, UniProt Q9HAZ1); conditions: at 10 µM
# [11] = molecular target: Calcium/calmodulin-dependent protein kinase type II subunit gamma (Homo sapiens) (UniProt Q13555); assay: Selectivity interaction (KinomeScan (DiscoverX)) EUB0000092b CAMK2G; conditions: at 10 µM
# [12] = molecular target: Serine/threonine-protein kinase NIM1 (Homo sapiens, UniProt Q8IY84); assay: Selectivity interaction (KinomeScan (DiscoverX)) EUB0000092b NIM1K; conditions: at 10 µM
# [13] = molecular target: Misshapen-like kinase 1 (Homo sapiens, UniProt Q8N4C8); assay: Selectivity interaction (Ambit KINOMEscan and KiNATiv profiling in Jurkat cells) EUB0000090b MINK1; format: cell-based; conditions: at 1 µM
# Misshapen-like kinase 1, sequence (Q8N4C8 whole entry, looked up): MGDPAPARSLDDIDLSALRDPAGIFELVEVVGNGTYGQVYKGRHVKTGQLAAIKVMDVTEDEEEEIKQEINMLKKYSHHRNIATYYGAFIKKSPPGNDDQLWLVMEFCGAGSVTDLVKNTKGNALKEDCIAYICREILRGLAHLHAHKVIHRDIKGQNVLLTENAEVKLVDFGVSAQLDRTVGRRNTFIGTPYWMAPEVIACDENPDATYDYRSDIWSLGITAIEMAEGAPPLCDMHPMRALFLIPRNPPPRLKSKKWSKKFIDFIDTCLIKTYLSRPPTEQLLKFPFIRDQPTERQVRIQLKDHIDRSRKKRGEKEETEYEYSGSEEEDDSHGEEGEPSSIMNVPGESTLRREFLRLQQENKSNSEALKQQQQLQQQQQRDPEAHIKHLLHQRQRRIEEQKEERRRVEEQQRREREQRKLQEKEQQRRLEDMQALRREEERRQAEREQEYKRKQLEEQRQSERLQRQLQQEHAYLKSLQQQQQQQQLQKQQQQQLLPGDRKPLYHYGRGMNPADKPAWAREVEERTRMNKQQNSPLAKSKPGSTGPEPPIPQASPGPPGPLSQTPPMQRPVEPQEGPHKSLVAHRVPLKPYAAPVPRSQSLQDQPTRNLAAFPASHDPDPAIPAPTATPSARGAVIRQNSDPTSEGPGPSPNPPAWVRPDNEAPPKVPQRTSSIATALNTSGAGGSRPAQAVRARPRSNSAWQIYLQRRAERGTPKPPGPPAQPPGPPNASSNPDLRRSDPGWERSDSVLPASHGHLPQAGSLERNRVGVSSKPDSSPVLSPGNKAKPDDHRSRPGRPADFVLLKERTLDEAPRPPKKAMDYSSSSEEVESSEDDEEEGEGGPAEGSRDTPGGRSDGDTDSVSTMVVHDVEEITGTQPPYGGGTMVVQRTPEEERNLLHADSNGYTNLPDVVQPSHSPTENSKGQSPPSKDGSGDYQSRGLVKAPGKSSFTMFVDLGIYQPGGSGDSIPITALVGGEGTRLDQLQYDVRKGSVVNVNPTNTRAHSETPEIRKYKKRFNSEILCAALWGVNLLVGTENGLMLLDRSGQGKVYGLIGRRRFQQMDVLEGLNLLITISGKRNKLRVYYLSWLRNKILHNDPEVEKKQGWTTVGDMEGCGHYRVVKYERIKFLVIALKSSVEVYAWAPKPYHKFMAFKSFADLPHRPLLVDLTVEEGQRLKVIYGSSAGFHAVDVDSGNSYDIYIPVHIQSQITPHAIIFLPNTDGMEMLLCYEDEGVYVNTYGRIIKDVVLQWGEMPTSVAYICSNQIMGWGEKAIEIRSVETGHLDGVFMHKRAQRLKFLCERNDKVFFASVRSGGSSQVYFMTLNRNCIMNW
# Phosphatidylinositol 4-phosphate 5-kinase type-1 alpha (Homo sapiens), sequence (Q99755 whole entry): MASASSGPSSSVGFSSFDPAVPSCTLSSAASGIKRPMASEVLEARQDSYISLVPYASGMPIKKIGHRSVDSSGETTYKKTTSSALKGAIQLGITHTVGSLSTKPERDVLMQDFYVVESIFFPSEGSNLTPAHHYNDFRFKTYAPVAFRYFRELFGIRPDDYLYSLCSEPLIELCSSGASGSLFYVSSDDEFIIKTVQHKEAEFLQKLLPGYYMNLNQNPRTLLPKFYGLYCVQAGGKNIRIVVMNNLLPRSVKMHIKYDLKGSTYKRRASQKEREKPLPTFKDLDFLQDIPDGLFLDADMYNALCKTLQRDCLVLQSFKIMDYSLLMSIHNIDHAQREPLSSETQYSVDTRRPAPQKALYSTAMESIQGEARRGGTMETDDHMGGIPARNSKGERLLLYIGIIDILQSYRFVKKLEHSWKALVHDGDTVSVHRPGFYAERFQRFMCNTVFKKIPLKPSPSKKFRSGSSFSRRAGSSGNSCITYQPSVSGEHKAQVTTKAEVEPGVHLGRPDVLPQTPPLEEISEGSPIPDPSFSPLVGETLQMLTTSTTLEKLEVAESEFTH
# Cyclin-dependent kinase-like 3 (Homo sapiens), sequence (Q8IVW4 whole entry, looked up): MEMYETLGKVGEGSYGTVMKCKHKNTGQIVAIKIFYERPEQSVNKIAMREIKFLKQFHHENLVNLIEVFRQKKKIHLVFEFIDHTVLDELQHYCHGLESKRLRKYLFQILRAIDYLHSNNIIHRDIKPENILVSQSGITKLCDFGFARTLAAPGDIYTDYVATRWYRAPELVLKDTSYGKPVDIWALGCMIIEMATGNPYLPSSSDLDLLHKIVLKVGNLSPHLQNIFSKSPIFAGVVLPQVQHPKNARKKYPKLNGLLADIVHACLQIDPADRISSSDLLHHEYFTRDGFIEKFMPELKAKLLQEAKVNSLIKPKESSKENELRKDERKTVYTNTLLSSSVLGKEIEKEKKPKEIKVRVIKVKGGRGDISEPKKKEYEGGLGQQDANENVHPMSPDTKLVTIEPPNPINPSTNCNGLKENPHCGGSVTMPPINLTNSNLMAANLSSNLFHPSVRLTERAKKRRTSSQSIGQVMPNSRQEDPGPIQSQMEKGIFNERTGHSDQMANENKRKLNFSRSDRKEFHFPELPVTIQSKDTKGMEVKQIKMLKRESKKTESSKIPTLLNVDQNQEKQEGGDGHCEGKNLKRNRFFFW
# Serine/threonine-protein kinase NIM1, sequence (Q8IY84 whole entry): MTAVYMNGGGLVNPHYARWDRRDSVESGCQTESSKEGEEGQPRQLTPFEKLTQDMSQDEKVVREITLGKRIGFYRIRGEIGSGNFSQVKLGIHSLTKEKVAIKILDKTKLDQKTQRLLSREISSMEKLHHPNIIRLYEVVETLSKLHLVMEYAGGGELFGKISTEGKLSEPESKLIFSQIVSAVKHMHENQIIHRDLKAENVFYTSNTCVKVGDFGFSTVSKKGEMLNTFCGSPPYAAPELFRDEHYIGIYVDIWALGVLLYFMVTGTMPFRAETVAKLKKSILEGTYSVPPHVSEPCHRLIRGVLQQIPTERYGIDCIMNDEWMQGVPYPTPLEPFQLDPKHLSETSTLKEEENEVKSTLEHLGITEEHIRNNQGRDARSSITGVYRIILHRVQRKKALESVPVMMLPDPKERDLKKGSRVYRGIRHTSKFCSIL
# Ribosomal protein S6 kinase alpha-6, sequence (Q9UK32 whole entry): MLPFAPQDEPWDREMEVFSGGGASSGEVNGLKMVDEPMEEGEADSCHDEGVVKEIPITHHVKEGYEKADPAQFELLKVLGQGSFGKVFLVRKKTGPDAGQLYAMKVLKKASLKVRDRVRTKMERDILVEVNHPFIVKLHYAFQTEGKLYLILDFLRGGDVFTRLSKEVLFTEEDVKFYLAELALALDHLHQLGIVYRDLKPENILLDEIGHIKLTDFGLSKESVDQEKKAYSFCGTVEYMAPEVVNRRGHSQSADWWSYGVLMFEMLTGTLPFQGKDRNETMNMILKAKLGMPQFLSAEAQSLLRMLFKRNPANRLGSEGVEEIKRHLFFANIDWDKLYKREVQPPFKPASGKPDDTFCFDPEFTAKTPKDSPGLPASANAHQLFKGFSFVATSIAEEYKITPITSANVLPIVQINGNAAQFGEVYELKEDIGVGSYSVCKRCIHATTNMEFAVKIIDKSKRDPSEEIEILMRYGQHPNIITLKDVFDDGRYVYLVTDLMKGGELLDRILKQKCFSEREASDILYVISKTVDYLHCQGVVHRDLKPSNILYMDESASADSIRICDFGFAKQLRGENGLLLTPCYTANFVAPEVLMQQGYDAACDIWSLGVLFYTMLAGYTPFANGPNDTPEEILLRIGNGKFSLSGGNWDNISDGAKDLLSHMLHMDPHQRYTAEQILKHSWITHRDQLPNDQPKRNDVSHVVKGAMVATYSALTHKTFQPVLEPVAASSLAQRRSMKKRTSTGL
# Calcium/calmodulin-dependent protein kinase type II subunit gamma (Homo sapiens), sequence (Q13555 whole entry): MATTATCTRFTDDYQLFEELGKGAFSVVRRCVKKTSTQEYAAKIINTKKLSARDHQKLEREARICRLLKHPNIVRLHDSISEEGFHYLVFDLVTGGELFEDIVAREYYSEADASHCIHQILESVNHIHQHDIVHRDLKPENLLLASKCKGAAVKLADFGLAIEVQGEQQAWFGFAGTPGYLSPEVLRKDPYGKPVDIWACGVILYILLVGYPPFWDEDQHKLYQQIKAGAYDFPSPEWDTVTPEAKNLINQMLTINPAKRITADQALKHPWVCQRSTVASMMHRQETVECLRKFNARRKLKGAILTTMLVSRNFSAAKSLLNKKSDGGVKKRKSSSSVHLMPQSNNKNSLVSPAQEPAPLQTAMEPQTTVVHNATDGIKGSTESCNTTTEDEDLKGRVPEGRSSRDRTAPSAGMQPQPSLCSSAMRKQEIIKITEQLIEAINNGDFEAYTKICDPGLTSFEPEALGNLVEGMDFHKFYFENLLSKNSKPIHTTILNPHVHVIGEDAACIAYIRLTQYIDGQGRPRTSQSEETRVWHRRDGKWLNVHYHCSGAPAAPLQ
# Dual specificity mitogen-activated protein kinase kinase 2 (Homo sapiens), sequence (P36507 whole entry): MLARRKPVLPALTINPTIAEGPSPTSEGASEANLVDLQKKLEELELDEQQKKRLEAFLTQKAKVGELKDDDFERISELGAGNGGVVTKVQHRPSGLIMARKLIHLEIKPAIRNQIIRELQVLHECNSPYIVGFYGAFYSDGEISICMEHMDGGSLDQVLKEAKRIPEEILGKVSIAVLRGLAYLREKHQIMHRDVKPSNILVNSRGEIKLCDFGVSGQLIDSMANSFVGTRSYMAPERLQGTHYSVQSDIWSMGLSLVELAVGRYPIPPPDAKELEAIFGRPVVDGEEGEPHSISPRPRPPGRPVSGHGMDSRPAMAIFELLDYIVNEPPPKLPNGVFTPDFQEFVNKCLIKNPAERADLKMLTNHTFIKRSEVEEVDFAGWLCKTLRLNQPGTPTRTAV
smiles,measurement,setting,value
COc1cc(N(C)c2ccnc3ccc(C(F)(F)F)cc23)cc(OC)c1OC,% binding,[1],76%
Nc1cnc(N2CCc3cc(S(=O)(=O)Nc4c(F)cc(Cl)cc4F)cc(N4CCCC4=O)c32)nc1 [TP-020n],% of control,[2],100%
same,% of control,[3],100%
Cc1cc([C@@H](C)Nc2ccccc2C(=O)O)c2nc(N3CCOCC3)cc(=O)n2c1 [AZD-6482],% of control,[4],71%
N#Cc1cccc(-c2c[nH]c3ncnc(N4CCOCC4)c23)c1,% of control,[5],71%
CNC(=O)Nc1ccc(-c2nc(N3CC4CCC(C3)O4)c3cnn(C4CCC5(CC4)OCCO5)c3n2)cc1,% of control,[6],95%
same,% of inhibition,[7],4%
O[C@H]1CC[C@H](Nc2ncc3nc(Nc4c(F)cc(F)cc4F)n([C@H]4CCOC4)c3n2)CC1,% of control,[8],100%
same,% of control,[9],100%
CCN(CC)CCCCNc1ncc2cc(-c3cc(OC)cc(OC)c3)c(NC(=O)NC(C)(C)C)nc2n1,% of control,[10],100%
CCC(=O)N1CCN(c2ccc(-n3c(=O)ccc4cnc5ccc(-c6cnc7ccccc7c6)cc5c43)cc2C(F)(F)F)CC1,% of control,[11],79%
same,% of control,[12],84%
CN(C)C/C=C/C(=O)Nc1ccc(C(=O)N2CCCC(Nc3ncc(Cl)c(-c4c[nH]c5ccccc45)n3)C2)cc1 (stereo not drawn),% of control,[13],89%
